Test results from patent US20150218654A1, “METHODS FOR PREDICTING MULTIPLE MYELOMA TREATMENT RESPONSE” (INSERM (INSTITUT NATIONAL DE LA SANTÉ ET DE LA RE- CHERCHE …, priority 2012, published 2015).

How the values were obtained:
[1] = test system: HMCLs XG-5, XG-6, XG-7, XG-20 and LP1; details: 0.5 μM, 7 days, treated vs control, 5 HMCLs
Description: Control cells were cultured in the same conditions without adding drug. […] Biotinylated cRNA was amplified with a double in vitro transcription and hybridized to the human U133 2.0 plus GeneChips, according to the manufacturer's instructions (Affymetrix, Santa Clara, Calif.). Fluorescence intensities were quantified and analyzed using the GECOS software (Affymetrix). Gene expression data were normalized with the MASS algorithm and analyzed with inventor's bioinformatics platforms-RAGE (http://[…] Amazonia (http://amazonia.[…] /) (36)-or SAM (Significance Analysis of Microarrays) software (37). The statistical significance of differences in overall survival between groups of patients was calculated by the log-rank test. Multivariate analysis was performed using the Cox proportional hazards model. Survival curves were plotted using the Kaplan-Meier method. All these analyses have been done with R.2.10.1 (http://www.r-project.org/) and bioconductor version 2.5. Gene annotation and networks were generated through the use of Ingenuity Pathways Analysis (Ingenuity® Systems, Redwood City, Calif.) (38).

[2] = Cell viability of HMCLs by trypan blue exclusion; type: cell-based, human; details: human; for viability at 3 days, 0.5 μM: Day 3, mean ± SD; for viability at 7 days, 0.5 μM: Day 7, mean ± SD
Description: (§1) The human MM cell lines XG-5, XG-6, XG-7, XG-20 and LP1 were grown in RPMI 1640 supplemented with 10% fetal bovine serum and 2 ng/ml recombinant IL-6. Cells (2×10^5/mL) were treated either with 0.5 μmol/L 5-Aza-2′-deoxycytidine (decitabine) (Sigma, St. Louis, Mo.) for 7 days.

HMCLs = experiment: Cell viability of HMCLs by trypan blue exclusion; type: cell-based, human; details: five HMCLs, 0.5 μM for 7 days
Description: as §1

[3] = LP1 multiple myeloma cells, LP1, 0.5 μM decitabine
[4] = XG-5 multiple myeloma cells, XG-5, 0.5 μM decitabine
[5] = XG-6 multiple myeloma cells, XG-6, 0.5 μM decitabine
[6] = XG-7 multiple myeloma cells, XG-7, 0.5 μM decitabine
[7] = XG-20 multiple myeloma cells, XG-20, 0.5 μM decitabine

## Nc1ncn([C@H]2C[C@H](O)[C@@H](CO)O2)c(=O)n1 [decitabine, 5-Aza-2′-deoxycytidine]
[1]
  Ratio LOC220930 (229090_at): 0.45
  Ratio LRP16 (219188_s_at): 0.36
  Ratio MAGEA9 (210437_at): 1.68
  Ratio MAN1A1 (221760_at): 0.43
  Ratio MANEA (222805_at): 0.51
  Ratio MGC15875 (232488_at): 0.55
  Ratio MIRN21 (224917_at): 1.99
  Ratio MLLT11 (211071_s_at): 2.53
  Ratio MTHFD1L (225520_at): 0.41
  Ratio MUC1 (207847_s_at): 2.92
  Ratio MX1 (202086_at): 1.73
  Ratio MYLIP (223129_x_at): 2.00
  Ratio NFE2L1 (214179_s_at): 0.59
  Ratio NMES1 (223484_at): 23.96
  Ratio NMI (203964_at): 1.86
  Ratio NQO1 (201468_s_at): 2.15
  Ratio OAS1 (205552_s_at): 1.65
  Ratio OPN1SW (229549_at): 0.40
  Ratio PARP12 (218543_s_at): 1.92
  Ratio PCK2 (202847_at): 0.47
  Ratio PGM3 (221788_at): 0.49
  Ratio PHGDH (201397_at): 0.36
  Ratio PLAC1 (219702_at): 0.42
  Ratio PPAPDC1B (223569_at): 0.42
  Ratio PSCDBP (209606_at): 0.48
  Ratio PSPH (205194_at): 0.38
  Ratio RECQL (213878_at): 0.44
  Ratio RPL37 (224763_at): 0.35
  Ratio SAMD9 (228531_at): 2.06
  Ratio SCD (200831_s_at): 0.39
  Ratio SEC24D (202375_at): 0.31
  Ratio SEC63 (201915_at): 0.51
  Ratio SEL1L (202061_s_at): 0.56
  Ratio SESN2 (223195_s_at): 0.47
  Ratio SFN (33322_i_at): 4.34
  Ratio SLAMF7 (222838_at): 0.51
  Ratio SLC1A4 (209610_s_at): 0.54
  Ratio SLC1A5 (208916_at): 0.40
  Ratio SLC7A11 (209921_at): 0.41
  Ratio SNTB1 (226438_at): 0.36
  Ratio SP110 (208012_x_at): 2.11
  Ratio SSR3 (217790_s_at): 0.40
  Ratio STAT1 (209969_s_at): 2.55
  Ratio STCH (202558_s_at): 0.47
  Ratio STK17A (202693_s_at): 2.52
  Ratio SULT1A3 (210580_x_at): 2.52
  Ratio TBC1D16 (222116_s_at): 0.70
  Ratio TKTL1 (214183_s_at): 85.24
  Ratio TMEM39A (222690_s_at): 0.46
  Ratio TMEM49 (1569003_at): 2.33
  Ratio TPST2 (204079_at): 2.20
  Ratio TRIB3 (218145_at): 0.41
  Ratio TSC22D3 (208763_s_at): 0.53
  Ratio TUBA2 (210527_x_at): 2.50
  Ratio TUBA3 (209118_s_at): 2.23
  Ratio TUBB2 (204141_at): 5.07
  Ratio TUBE1 (226181_at): 0.38
  Ratio ZNF275 (225382_at): 0.35
  Ratio ZNF706 (227132_at): 0.49
[2]; [3]
  viability at 3 days, 0.5 μM: 91 ± 2%
  viability at 7 days, 0.5 μM: 86 ± 4%
[2]; [4]
  viability at 3 days, 0.5 μM: 65 ± 5%
  viability at 7 days, 0.5 μM: 69 ± 6%
[2]; [5]
  viability at 3 days, 0.5 μM: 90 ± 1%
  viability at 7 days, 0.5 μM: 90 ± 1%
[2]; [6]
  viability at 3 days, 0.5 μM: 90 ± 2%
  viability at 7 days, 0.5 μM: 85 ± 5%
[2]; [7]
  viability at 3 days, 0.5 μM: 91 ± 3%
  viability at 7 days, 0.5 μM: 83 ± 5%
HMCLs
  effect on myeloma cell viability: did not affect myeloma cell viability
